Experimental data from ChEMBL document CHEMBL5150008, “Fragment-Guided Discovery of Pyrazole Carboxylic Acid Inhibitors of the Kelch-like ECH-Associated Protein 1: Nuclear Factor Erythroid 2 Related Factor 2 (KEAP1:NRF2) Protein-Protein Interaction” (J Med Chem, 2021).

Columns and labels:
Keap1/Nrf2 [1] = target: Keap1/Nrf2 (Homo sapiens, UniProt Q14145); experiment: (§1) Inhibition of 5'-TAMRA tagged NRF2 (unknown origin)/human recombinant N-terminal Avi tagged KEAP-1 (321 to 609 residues) expressed in Baculovirus system infected in Sf9 cells protein-protein interaction by fluorescence polarisation assay
Sequence of Keap1/Nrf2 (Homo sapiens, UniProt Q14145) (Q16236 whole entry, the tested form may be a part): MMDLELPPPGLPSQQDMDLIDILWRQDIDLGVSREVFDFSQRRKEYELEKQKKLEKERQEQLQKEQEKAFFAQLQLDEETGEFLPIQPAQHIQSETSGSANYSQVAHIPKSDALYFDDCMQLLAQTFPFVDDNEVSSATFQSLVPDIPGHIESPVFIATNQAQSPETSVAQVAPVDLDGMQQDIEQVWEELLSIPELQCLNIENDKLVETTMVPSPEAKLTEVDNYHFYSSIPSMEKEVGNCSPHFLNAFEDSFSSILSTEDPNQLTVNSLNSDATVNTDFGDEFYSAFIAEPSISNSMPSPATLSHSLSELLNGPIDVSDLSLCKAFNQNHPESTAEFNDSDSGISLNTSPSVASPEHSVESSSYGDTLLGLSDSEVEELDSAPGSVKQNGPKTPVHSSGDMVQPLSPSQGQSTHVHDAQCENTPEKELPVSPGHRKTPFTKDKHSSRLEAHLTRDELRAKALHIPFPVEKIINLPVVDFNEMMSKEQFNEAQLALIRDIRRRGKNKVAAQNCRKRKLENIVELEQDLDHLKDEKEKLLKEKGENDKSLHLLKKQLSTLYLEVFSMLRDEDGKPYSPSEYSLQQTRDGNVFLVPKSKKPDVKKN
Sequence of Keap1/Nrf2 (Homo sapiens, UniProt Q14145) (Q14145 whole entry, the tested form may be a part): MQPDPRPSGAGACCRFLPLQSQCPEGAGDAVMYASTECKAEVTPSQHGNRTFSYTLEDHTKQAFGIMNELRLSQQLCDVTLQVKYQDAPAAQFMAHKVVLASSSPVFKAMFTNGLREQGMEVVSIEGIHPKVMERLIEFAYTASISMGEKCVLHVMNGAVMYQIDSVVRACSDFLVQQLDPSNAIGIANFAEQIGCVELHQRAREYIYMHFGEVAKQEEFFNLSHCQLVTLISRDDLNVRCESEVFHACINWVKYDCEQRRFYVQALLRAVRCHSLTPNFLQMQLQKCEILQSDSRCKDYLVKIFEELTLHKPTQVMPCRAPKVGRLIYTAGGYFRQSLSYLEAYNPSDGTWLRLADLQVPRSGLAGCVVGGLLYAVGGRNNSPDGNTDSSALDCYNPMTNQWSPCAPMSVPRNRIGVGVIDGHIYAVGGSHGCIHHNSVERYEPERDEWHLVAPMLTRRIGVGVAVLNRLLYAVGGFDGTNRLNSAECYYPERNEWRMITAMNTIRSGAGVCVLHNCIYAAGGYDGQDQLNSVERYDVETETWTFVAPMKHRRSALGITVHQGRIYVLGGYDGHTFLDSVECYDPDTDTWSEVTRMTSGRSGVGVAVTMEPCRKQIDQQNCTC

[2] = Permeability in artificial phospholipid membrane by AMPA based HPLC/UV analysis; assay type: ADME, cell membranes; settings: not told; read-out: permeability
[3] = Lipophilicity, logD of compound at pH 2 to 10.5 by reversed-phase HPLC; assay type: physicochemical
Keap1/Nrf2 [4] = target: T1, Keap1/Nrf2 (Homo sapiens, UniProt Q16236+Q14145); experiment: Inhibition of 5'-TAMRA tagged NRF2 (unknown origin)/human recombinant N-terminal Avi tagged KEAP-1 (321 to 609 residues) expressed in Baculovirus system infected in Sf9 cells protein-protein interaction at 0.015 uM by fluorescence polarisation assay relative to control
Target sequence in this assay (Q14145 whole entry, looked up, the tested form may be a part): as the sequence (Q14145 whole entry, the tested form may be a part) above
Target sequence in this assay (Q16236 whole entry, looked up, the tested form may be a part): as the sequence (Q16236 whole entry, the tested form may be a part) above

Keap1/Nrf2 [5] = target: T1, Keap1/Nrf2; experiment: Inhibition of 5'-TAMRA tagged NRF2 (unknown origin)/human recombinant N-terminal Avi tagged KEAP-1 (321 to 609 residues) expressed in Baculovirus system infected in Sf9 cells protein-protein interaction at 0.03 uM by fluorescence polarisation assay relative to control
Keap1/Nrf2 [6] = target: T1, Keap1/Nrf2; experiment: Inhibition of 5'-TAMRA tagged NRF2 (unknown origin)/human recombinant N-terminal Avi tagged KEAP-1 (321 to 609 residues) expressed in Baculovirus system infected in Sf9 cells protein-protein interaction at 0.05 uM by fluorescence polarisation assay relative to control
Target sequence in this assay (Q14145 whole entry, looked up, the tested form may be a part): as the sequence (Q14145 whole entry, the tested form may be a part) above
Target sequence in this assay (Q16236 whole entry, looked up, the tested form may be a part): as the sequence (Q16236 whole entry, the tested form may be a part) above

Keap1/Nrf2 [7] = target: T1, Keap1/Nrf2; experiment: as §1
Target sequence in this assay (Q14145 whole entry, looked up, the tested form may be a part): as the sequence (Q14145 whole entry, the tested form may be a part) above
Target sequence in this assay (Q16236 whole entry, looked up, the tested form may be a part): as the sequence (Q16236 whole entry, the tested form may be a part) above

Keap1/Nrf2 [8] = target: T1, Keap1/Nrf2; experiment: Inhibition of 5'-TAMRA tagged NRF2 (unknown origin)/human recombinant N-terminal Avi tagged KEAP-1 (321 to 609 residues) expressed in Baculovirus system infected in Sf9 cells protein-protein interaction at 0.1 uM by fluorescence polarisation assay relative to control
Target sequence in this assay (Q14145 whole entry, looked up, the tested form may be a part): as the sequence (Q14145 whole entry, the tested form may be a part) above
Target sequence in this assay (Q16236 whole entry, looked up, the tested form may be a part): as the sequence (Q16236 whole entry, the tested form may be a part) above

| IC50 (Keap1/Nrf2 [1]; read-out: IC50) | Papp [2] | chromatographic logD [3] | SMILES | further results |
| --- | --- | --- | --- | --- |
| 1 µM | – | – | CN(C)C(=O)c1cccc(-c2cccc(-n3ncc(C(=O)O)c3C3CCCC3)c2)c1 | – |
| – | 1.6 ×10⁻⁶ cm/s | 3 | CCC[C@@H]1CCCCN1C(=O)c1cccc(-c2cccc(-n3ncc(C(=O)O)c3[C@H]3C[C@@H]3c3cn(C)nn3)c2)c1 | inhibition (Keap1/Nrf2 [4]): 98% |
| 7.5 µM | – | – | CN(C)C(=O)c1ccnc(-c2cccc(-n3ncc(C(=O)O)c3C(F)(F)F)c2)c1 | – |
| 8.5 µM | – | – | CC(C)Oc1cccc(-c2cccc(-n3ncc(C(=O)O)c3C(F)(F)F)n2)c1 | – |
| > 1000 µM | – | – | O=C(O)c1cnn(-c2ccccn2)c1C(F)(F)F | – |
| – | 3.7 ×10⁻⁶ cm/s | 2.9 | CCCC1CCCCN1C(=O)c1cccc(-c2cccc(-n3ncc(C(=O)O)c3C3CC3c3cn(C)nn3)c2)c1 (mixture of isomers) | inhibition (Keap1/Nrf2 [4]): 84% |
| 10 µM | – | – | CN(C)C(=O)c1cccc(-c2cccc(-n3ncc(C(=O)O)c3C(C)(C)C)n2)c1 | – |
| > 10 µM | < 0.3 ×10⁻⁶ cm/s | 1.3 | CN(C)C(=O)c1cccc(-c2cccc(-n3ncc(C(=O)O)c3C3CC3)c2)c1F | IC50 (Keap1/Nrf2 [1]; read-out: pIC50 (converted)): < 1 µM |
| 1.8 µM | – | – | CN(C)C(=O)c1cccc(-c2cccc(-n3ncc(C(=O)O)c3C3CCCCC3)c2)c1 | – |
| 1 µM | – | – | CN(C)C(=O)c1cccc(-c2cccc(-n3ncc(C(=O)O)c3C(F)(F)F)n2)c1 | – |
| 2 µM | – | – | CN(C)C(=O)c1cccc(-c2cccc(-n3ncc(C(=O)O)c3-c3cccnc3)c2)c1 | – |
| 0.37 µM | < 0.3 ×10⁻⁶ cm/s | 1.4 | CN(C)C(=O)c1cccc(-c2cccc(-n3ncc(C(=O)O)c3C3CC3)c2)c1 | IC50 (Keap1/Nrf2 [1]; read-out: pIC50 (converted)): < 1 µM |
| 3.7 µM | – | – | CN(C)C(=O)c1cncc(-c2cccc(-n3ncc(C(=O)O)c3C(F)(F)F)c2)c1 | – |
| – | 1.7 ×10⁻⁶ cm/s | 3 | CCC[C@@H]1CCCCN1C(=O)c1cccc(-c2cccc(-n3ncc(C(=O)O)c3[C@@H]3C[C@H]3c3cn(C)nn3)c2)c1 | IC50 (Keap1/Nrf2 [7]): 0.56 µM |
| 0.041 µM | < 0.3 ×10⁻⁶ cm/s | 0.8 | CN(C)C(=O)c1cccc(-c2cccc(-n3ncc(C(=O)O)c3C3CC3c3cn(C)nn3)c2)c1 (racemic) | IC50 (Keap1/Nrf2 [1]; read-out: pIC50 (converted)): < 1 µM; inhibition (Keap1/Nrf2 [5]): 53% |
| 0.48 µM | – | – | CN(C)C(=O)c1cccc(-c2cccc(-n3ncc(C(=O)O)c3C(F)(F)F)c2)c1 | – |
| 3.5 µM | – | – | CC(=O)N1CCC(c2c(C(=O)O)cnn2-c2cccc(-c3cccc(C(=O)N(C)C)c3)c2)CC1 | – |
| – | 0.3 ×10⁻⁶ cm/s | 2.2 | CN(CC1CC1)C(=O)c1cccc(-c2cccc(-n3ncc(C(=O)O)c3C3CC3)c2)c1F | IC50 (Keap1/Nrf2 [1]; read-out: pIC50 (converted)): < 1 µM; inhibition (Keap1/Nrf2 [8]): 50% |

The next lines start with the compound.

| SMILES | IC50 (Keap1/Nrf2 [1]; read-out: IC50) | Papp [2] | chromatographic logD [3] | further results |
| --- | --- | --- | --- | --- |
| CCC[C@H]1CCCCN1C(=O)c1cccc(-c2cccc(-n3ncc(C(=O)O)c3C3CC3)c2)c1F | 0.06 µM | 6.3 ×10⁻⁶ cm/s | 3.5 | – |
| CCCC1CCCCN1C(=O)c1cccc(-c2cccc(-n3ncc(C(=O)O)c3C3CC3c3ccccn3)c2)c1 (mixture of isomers) | – | 4 ×10⁻⁶ cm/s | 3.1 | inhibition (Keap1/Nrf2 [5]): 42% |
| O=C(O)c1cnn(-c2cccc([C@@H]3CCC[C@H](C(=O)N4CCCCC4)C3)c2)c1C1CC1 (racemic) | 0.3 µM | < 0.3 ×10⁻⁶ cm/s | 2.7 | – |
| O=C(O)c1cnn(-c2cccc(NS(=O)(=O)c3ccccc3)c2)c1C(F)(F)F | 4.6 µM | – | – | – |
| O=C(O)c1cnn(-c2cccc(-c3cccc(C(=O)N4CCCC5(CCCC5)C4)c3F)c2)c1C1CC1 | – | 1.2 ×10⁻⁶ cm/s | 3.7 | inhibition (Keap1/Nrf2 [4]): 50% |
| O=C(O)c1cnn(-c2cccc(-c3cccc(C(=O)N4CCCCC4)c3F)c2)c1C1CC1 | 0.12 µM | < 0.3 ×10⁻⁶ cm/s | 2.3 | IC50 (Keap1/Nrf2 [1]; read-out: pIC50 (converted)): < 1 µM |
| CCCC1CCCCN1C(=O)C1CCCC(c2cccc(-n3ncc(C(=O)O)c3C3CC3)c2)C1 (mixture of isomers) | 0.23 µM | 1.1 ×10⁻⁶ cm/s | 4.1 | – |
| CCC[C@@H]1CCCCN1C(=O)c1cccc(-c2cccc(-n3ncc(C(=O)O)c3C3CC3)c2)c1F | – | 2.7 ×10⁻⁶ cm/s | 3.5 | inhibition (Keap1/Nrf2 [4]): 52% |
| CCCC1CCCCN1C(=O)c1cccc(-c2cccc(-n3ncc(C(=O)O)c3C3CC3c3cccnc3)c2)c1 (mixture of isomers) | 0.221 µM | 13 ×10⁻⁶ cm/s | 3.9 | – |
| O=C(O)c1cnn(-c2cccc(-c3cccc(C(=O)N(CC4CC4)CC4CC4)c3F)c2)c1C1CC1 | – | 1.6 ×10⁻⁶ cm/s | 3.5 | inhibition (Keap1/Nrf2 [5]): 46% |
| CCCC1CCCCN1C(=O)c1cccc(-c2cccc(-n3ncc(C(=O)O)c3C3CC3c3cccnn3)c2)c1 (mixture of isomers) | – | 1.7 ×10⁻⁶ cm/s | 2.9 | inhibition (Keap1/Nrf2 [4]): 50% |
| CN(C)C(=O)[C@H]1CCC[C@@H](c2cccc(-n3ncc(C(=O)O)c3C3CC3)c2)C1 (racemic) | 0.24 µM | < 0.3 ×10⁻⁶ cm/s | 1.7 | IC50 (Keap1/Nrf2 [1]; read-out: pIC50 (converted)): < 1 µM |
| CCCC[C@@H]1CCCN1C(=O)[C@H]1CCC[C@@H](c2cccc(-n3ncc(C(=O)O)c3C3CC3)c2)C1 | – | 1.6 ×10⁻⁶ cm/s | 4.3 | inhibition (Keap1/Nrf2 [4]): 81% |
| CCCC1COCCN1C(=O)c1cccc(-c2cccc(-n3ncc(C(=O)O)c3C3CC3)c2)c1F (stereo not given) | – | 1.1 ×10⁻⁶ cm/s | 2.5 | inhibition (Keap1/Nrf2 [5]): 60%; inhibition (Keap1/Nrf2 [6]): 72% |
| O=C(O)c1cnn(-c2cccc(-c3cccc(CNS(=O)(=O)c4ccccc4)c3)c2)c1C(F)(F)F | 45 µM | – | – | – |
| CCCCC1CCCN1C(=O)C1CCCC(c2cccc(-n3ncc(C(=O)O)c3C3CC3)c2)C1 (mixture of isomers) | – | 2.7 ×10⁻⁶ cm/s | 4.4 | inhibition (Keap1/Nrf2 [5]): 64% |
| O=C(O)c1cnn(-c2ccccc2)c1C(F)(F)F | > 300 µM | – | – | – |
